# Patent US12077503B2, “Substituted cyclic amides and their use as herbicides” (FMC CORPORATION, priority 2015, dated 2024)
# Key:
# Format in all cases: in vivo
# Kochia (Kochia scoparia) [1] = experiment: Test A preemergence; settings: Bassia scoparia, pre-emergence, 240 h, Preemergence
# In short: (§1)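 Greenhouse, ~10 d after spray; visual injury vs untreated controls, 0 = no effect, 100 = complete control. Preemergence: directed soil spray over planted seeds. Postemergence: plants 2–10 cm, 1–2 leaf stage. Loam/sand blend. Compound in non-phytotoxic solvent with surfactant.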
# [2] = test system: barnyardgrass (Echinochloa crus-galli); experiment: Test A preemergence; settings: Echinochloa crus-galli, pre-emergence, 240 h, Preemergence
# In short: as §1
# [3] = test system: giant foxtail (Setaria faberii); experiment: Test A preemergence; settings: Setaria faberi, pre-emergence, 240 h, Preemergence
# In short: as §1
# [4] = test system: pigweed (Amaranthus retroflexus); experiment: Test A preemergence; settings: Amaranthus retroflexus, pre-emergence, 240 h, Preemergence
# [5] = test system: ragweed (common ragweed, Ambrosia elatior); experiment: Test A preemergence; settings: Ambrosia artemisiifolia, pre-emergence, 240 h, Preemergence
# In short: as §1
# [6] = test system: ryegrass, Italian (Italian ryegrass, Lolium multiflorum); experiment: Test A preemergence; settings: Lolium multiflorum, pre-emergence, 240 h, Preemergence
# In short: as §1
# [7] = test system: Galium (catchweed bedstraw, Galium aparine); experiment: Test A postemergence; settings: Galium, post-emergence, 240 h, Postemergence, read-out: Plant response rating, Galium
# In short: as §1
# Kochia (Kochia scoparia) [8] = experiment: Test A postemergence; settings: Bassia scoparia, post-emergence, 240 h, Postemergence, read-out: Plant response rating, Kochia
# In short: as §1
# [9] = test system: barnyardgrass (Echinochloa crus-galli); experiment: Test A postemergence; settings: Echinochloa crus-galli, post-emergence, 240 h, Postemergence, read-out: Plant response rating, Barnyardgrass
# In short: as §1
# [10] = test system: blackgrass (Alopecurus myosuroides); experiment: Test A postemergence; settings: Alopecurus myosuroides, post-emergence, 240 h, Postemergence, read-out: Plant response rating, Blackgrass
# In short: as §1
# corn (Zea mays) = experiment: Test A postemergence; settings: Zea mays, post-emergence, 240 h, Postemergence
# In short: as §1
# [11] = test system: giant foxtail (Setaria faberii); experiment: Test A postemergence; settings: Setaria faberi, post-emergence, 240 h, Postemergence, read-out: Plant response rating, Foxtail, Giant
# In short: as §1
# [12] = test system: pigweed (Amaranthus retroflexus); experiment: Test A postemergence; settings: Amaranthus retroflexus, post-emergence, 240 h, Postemergence, read-out: Plant response rating, Pigweed
# In short: as §1
# [13] = test system: ragweed (common ragweed, Ambrosia elatior); experiment: Test A postemergence; settings: Ambrosia artemisiifolia, post-emergence, 240 h, Postemergence, read-out: Plant response rating, Ragweed
# In short: as §1
# [14] = test system: ryegrass, Italian (Italian ryegrass, Lolium multiflorum); experiment: Test A postemergence; settings: Lolium multiflorum, post-emergence, 240 h, Postemergence, read-out: Plant response rating, Ryegrass, Italian
# In short: as §1
# [15] = test system: wheat (Triticum aestivum); experiment: Test A postemergence; settings: Triticum aestivum, post-emergence, 240 h, Postemergence, read-out: Plant response rating, Wheat
# In short: as §1
# [16] = test system: barnyardgrass (Echinochloa crus-galli); experiment: Test B flooded paddy test; settings: Echinochloa crus-galli, 250 g ai/ha, Flood; 0 to 100 scale where 0 is no effect and 100 is complete control; read-out: Barnyardgrass plant response rating
# In short: (§2)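 Plants at 2-leaf stage flooded to 3 cm above soil, with compounds applied directly to paddy water and that depth maintained. Plants kept in greenhouse 13–15 d. Visual rating versus controls on a 0 (no effect) to 100 (complete control) scale.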
# [17] = test system: ducksalad (Heteranthera limosa); experiment: Test B flooded paddy test; settings: Heteranthera limosa, 250 g ai/ha, Flood; 0 to 100 scale where 0 is no effect and 100 is complete control; read-out: Ducksalad plant response rating
# In short: as §2
# rice (Oryra sativa) = experiment: Test B flooded paddy test; settings: Oryza sativa, 250 g ai/ha, Flood; 0 to 100 scale where 0 is no effect and 100 is complete control; read-out: Rice plant response rating
# In short: as §2
# [18] = test system: sedge, umbrella (small-flower umbrella sedge, Cyperus difformis); experiment: Test B flooded paddy test; settings: Cyperus difformis, 250 g ai/ha, Flood; 0 to 100 scale where 0 is no effect and 100 is complete control; read-out: Sedge, Umbrella plant response rating
# In short: as §2
# [19] = 125 g ai/ha, visual injury after approximately 10 d, 0 to 100 scale where 0 is no effect and 100 is complete control
# [20] = 31 g ai/ha, visual injury after approx. 10 d, 0 to 100 scale, 0 no effect, 100 complete control
smiles,measurement,setting,value
O=C(Nc1cccc(Cl)c1F)[C@H]1C(=O)N(C2CC2)CC[C@@H]1c1ccc(F)cc1 [Compound 1006],pest or weed control at 31 g/ha,"Kochia (Kochia scoparia) [1]; 31 g ai/ha, 0 to 100 scale where 0 is no effect and 100 is complete control, read-out: Kochia plant response rating",0%
same,pest or weed control at 125 g/ha,"Kochia (Kochia scoparia) [1]; 125 g ai/ha, visual injury rating after approximately 10 d, read-out: Kochia plant response rating (0 to 100 scale, 0 is no effect, 100 is complete control)",0%
same,pest or weed control at 125 g/ha,"[2]; 125 g ai/ha, visual injury rating after approximately 10 d, read-out: Barnyardgrass plant response rating (0 to 100 scale, 0 is no effect, 100 is complete control)",0%
same,pest or weed control at 31 g/ha,"[2]; 31 g ai/ha, 0 to 100 scale (0 no effect, 100 complete control), read-out: Plant response rating, Barnyardgrass",0%
same,pest or weed control at 125 g/ha,"[3]; 125 g ai/ha, visual injury rating after approximately 10 d, read-out: Foxtail, Giant plant response rating (0 to 100 scale, 0 is no effect, 100 is complete control)",0%
same,pest or weed control at 31 g/ha,"[3]; 31 g ai/ha, 0 to 100 scale (0 no effect, 100 complete control), read-out: Plant response rating, Foxtail, Giant",0%
same,pest or weed control at 31 g/ha,"[4]; 31 g ai/ha, 0 to 100 scale where 0 is no effect and 100 is complete control, read-out: Pigweed plant response rating",0%
same,pest or weed control at 125 g/ha,"[4]; 125 g ai/ha, visual injury rating after approximately 10 d, read-out: Pigweed plant response rating (0 to 100 scale, 0 is no effect, 100 is complete control)",0%
same,pest or weed control at 31 g/ha,"[5]; 31 g ai/ha, 0 to 100 scale where 0 is no effect and 100 is complete control, read-out: Ragweed plant response rating",0%
same,pest or weed control at 125 g/ha,"[5]; 125 g ai/ha, visual injury rating after approximately 10 d, read-out: Ragweed plant response rating (0 to 100 scale, 0 is no effect, 100 is complete control)",0%
same,pest or weed control at 31 g/ha,"[6]; 31 g ai/ha, 0 to 100 scale where 0 is no effect and 100 is complete control, read-out: Ryegrass, Italian plant response rating",0%
same,pest or weed control at 125 g/ha,"[6]; 125 g ai/ha, visual injury rating after approximately 10 d, read-out: Ryegrass, Italian plant response rating (0 to 100 scale, 0 is no effect, 100 is complete control)",0%
same,pest or weed control at 125 g/ha,[7]; [19],0%
same,pest or weed control at 31 g/ha,[7]; [20],0%
same,pest or weed control at 125 g/ha,Kochia (Kochia scoparia) [8]; [19],0%
same,pest or weed control at 31 g/ha,Kochia (Kochia scoparia) [8]; [20],0%
same,pest or weed control at 125 g/ha,[9]; [19],0%
same,pest or weed control at 31 g/ha,[9]; [20],0%
same,pest or weed control at 125 g/ha,[10]; [19],0%
same,pest or weed control at 31 g/ha,[10]; [20],0%
same,"Corn plant response rating (crop injury, 0 = no effect, 100 = complete kill) at 125 g/ha",corn (Zea mays); [19],10%
same,"Corn plant response rating (crop injury, 0 = no effect, 100 = complete kill) at 31 g/ha",corn (Zea mays); [20],0%
same,pest or weed control at 125 g/ha,[11]; [19],0%
same,pest or weed control at 31 g/ha,[11]; [20],0%
same,pest or weed control at 125 g/ha,[12]; [19],0%
same,pest or weed control at 31 g/ha,[12]; [20],0%
same,pest or weed control at 125 g/ha,[13]; [19],10%
same,pest or weed control at 31 g/ha,[13]; [20],10%
same,pest or weed control at 125 g/ha,[14]; [19],0%
same,pest or weed control at 31 g/ha,[14]; [20],0%
same,plant injury at 125 g/ha,[15]; [19],0%
same,plant injury at 31 g/ha,[15]; [20],0%
same,pest or weed control at 250 g/ha,[16],0%
same,pest or weed control at 250 g/ha,[17],0%
same,pest or weed control at 250 g/ha,rice (Oryra sativa),0%
same,pest or weed control at 250 g/ha,[18],0%
